# Experimental data taken from EP1900728A1 (Genecare Research Institute Co., Ltd, priority 2005, dated 2006).
# Molecular target: T1, IκBα ubiquitinating enzyme (SCF complex: ROC1, Cullin1, Skp1, His-TrCP1; with E1, UbcH5b) (Homo sapiens, UniProt P62877+P63208+Q13616+Q9Y297)
# T1 construct: His (polyhistidine); made in house; host or cells: insect cells (baculovirus) for the SCF complex and His-E1; E. coli for His-UBCH5b
# Test: Measurement of ubiquitinating enzyme activity (IκBα ubiquitination, time-resolved fluorescence with Eu(K)-labeled ubiquitin and XL665-labeled anti-GST antibody)
# Assay type: biochemical
# Conditions: enzyme activity inhibition test, method (1), Table 5; read-out: EVALUATION
# Experimental: Method 1: Measurement of ubiquitinating enzyme activity
# A recombinant vector His-UBCH5b containing a polyhistidine tag (His) and UBCH5b was prepared. E. coli was transformed with the vector, the protein was expressed, and affinity purification was carried out using Ni-NTA agarose (Qiagen). Four types of recombinant baculoviruses (ROC1, Cullin1, Skp1, and His-TrCP1) were prepared for the SCF complex protein, insect cells were infected in quadruplicate for expression, and affinity purification was carried out using Ni-NTA agarose. Recombinant baculoviruses His-IKKβ, His-E1 were prepared. The insect cells were infected with each of those for expression, and affinity purification was carried out using Ni-NTA agarose. A recombinant vector GST-IκBα was prepared by fusing glutathione-S-transferase tag (GST) and IκBα, E. coli was transformed with the vector for the protein expression, and affinity purification was carried out using glutathione sepharose (Amersham Biosciences). Genetic transformants were prepared by PCR amplification followed by recombination, all of which were based on published human-derived sequences.
# Phosphorylation reaction of IκBα was performed by incubating the above-mentioned assay buffer (50 mM Tris-HCl (pH7.4), 2 mM ATP, 5 mM MgCl2, 0.5 mM DTT, 0.1% BSA) containing IκBα and IKKβ at room temperature for 1 hour. Ubiquitination reactions were carried out as follows. Compound samples at various concentrations, ubiquitin, Eu (K)-labeled ubiquitin, E1, UbcH5b, and SCF complex were added to phosphorylated IκBα, and then this was incubated at room temperature for 30 minutes. The reaction was terminated by adding EDTA, the above-mentioned revelation buffer (100 mM phosphate buffer (pH7.0), 0.5 M KF, 0.1% BSA) containing XL665-labeled anti-GST antibody was added and this was left to stand at room temperature for 2 hours. Measurements were made using ARVO-HTS (Perkin Elmer). The ratio of fluorescence intensities at 620 nm and 665 nm (Em 665 nm/Em 620 nm x 10,000) with excitation light at 337 nm was measured.
# The ubiquitination level without the addition of a compound sample was used as the control value, and the level in the absence of SCF complex was used as the blank value for the assays. Inhibitory activities of the compounds were indicated as % inhibition = 100 - (value with a compound sample added - blank value) / (control value - blank value) x 100. IC50 was indicated as the concentration of the compound showing 50% inhibition. Eu (K)-labeled ubiquitin, XL665-labeled anti-GST antibody, and XL665-labeled anti-His antibody were purchased from CIS bio international. Costar solid black plates (96 wells) were used for the assays.
# T1 sequence (Q9Y297 whole entry): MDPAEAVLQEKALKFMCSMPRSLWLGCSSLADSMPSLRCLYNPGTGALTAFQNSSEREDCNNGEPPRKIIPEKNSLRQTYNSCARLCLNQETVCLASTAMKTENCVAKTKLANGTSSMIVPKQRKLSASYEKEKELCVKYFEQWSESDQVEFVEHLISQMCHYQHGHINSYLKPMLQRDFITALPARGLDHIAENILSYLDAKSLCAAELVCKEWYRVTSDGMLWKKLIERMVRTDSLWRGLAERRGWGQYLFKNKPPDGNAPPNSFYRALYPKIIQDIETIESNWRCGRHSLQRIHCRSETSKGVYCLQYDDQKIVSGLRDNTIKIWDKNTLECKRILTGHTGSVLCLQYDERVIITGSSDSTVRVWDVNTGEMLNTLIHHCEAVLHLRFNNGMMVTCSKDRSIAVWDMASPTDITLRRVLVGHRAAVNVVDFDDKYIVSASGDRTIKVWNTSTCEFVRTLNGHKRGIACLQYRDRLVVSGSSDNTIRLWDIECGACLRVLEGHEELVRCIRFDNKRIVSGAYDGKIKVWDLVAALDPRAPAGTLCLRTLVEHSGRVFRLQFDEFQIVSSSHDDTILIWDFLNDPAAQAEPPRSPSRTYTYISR
# T1 sequence (Q13616 whole entry): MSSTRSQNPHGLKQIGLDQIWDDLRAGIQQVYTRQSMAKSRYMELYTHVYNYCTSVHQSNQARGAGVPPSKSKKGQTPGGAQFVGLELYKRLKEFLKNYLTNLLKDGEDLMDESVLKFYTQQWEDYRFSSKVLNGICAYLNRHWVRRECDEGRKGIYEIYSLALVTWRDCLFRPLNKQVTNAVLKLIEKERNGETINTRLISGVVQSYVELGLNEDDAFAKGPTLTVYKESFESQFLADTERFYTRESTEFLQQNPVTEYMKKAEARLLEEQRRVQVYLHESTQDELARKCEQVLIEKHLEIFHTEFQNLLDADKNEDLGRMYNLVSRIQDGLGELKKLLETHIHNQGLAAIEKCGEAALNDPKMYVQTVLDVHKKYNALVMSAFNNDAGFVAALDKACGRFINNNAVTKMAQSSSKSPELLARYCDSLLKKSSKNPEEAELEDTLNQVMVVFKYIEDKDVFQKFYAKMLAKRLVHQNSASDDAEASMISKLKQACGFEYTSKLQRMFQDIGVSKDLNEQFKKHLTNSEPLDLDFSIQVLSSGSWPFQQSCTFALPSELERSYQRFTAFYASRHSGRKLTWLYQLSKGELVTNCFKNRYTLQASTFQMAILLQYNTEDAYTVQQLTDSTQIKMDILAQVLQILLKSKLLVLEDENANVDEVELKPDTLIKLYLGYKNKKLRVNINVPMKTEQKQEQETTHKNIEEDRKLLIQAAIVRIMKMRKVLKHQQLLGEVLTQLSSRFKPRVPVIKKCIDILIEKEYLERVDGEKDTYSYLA
# T1 sequence (P63208 whole entry): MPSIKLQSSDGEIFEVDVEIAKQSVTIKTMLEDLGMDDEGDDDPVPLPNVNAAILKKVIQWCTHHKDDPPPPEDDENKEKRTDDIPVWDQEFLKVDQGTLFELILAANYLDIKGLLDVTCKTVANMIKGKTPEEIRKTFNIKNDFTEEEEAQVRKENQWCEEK
# T1 sequence (P62877 whole entry): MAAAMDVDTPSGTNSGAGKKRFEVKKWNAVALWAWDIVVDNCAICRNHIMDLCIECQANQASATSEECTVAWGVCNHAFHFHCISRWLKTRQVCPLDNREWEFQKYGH
row,SMILES,IC50
1,COCC1=NN(c2ccccc2)C(=O)/C1=C\c1ccc(OCc2ccccc2)c(OC)c1 [Compound 3],10 to 20 µM
2,COCC1=NN(c2ccccc2)C(=O)/C1=C\c1ccc(N2CCN(C(=O)OC)CC2)cc1 [Compound 5],< 40 µM
3,COCC1=NN(c2ccccc2)C(=O)/C1=C\c1ccc(CO)o1 [Compound 7],< 40 µM
4,COCC1=NN(c2ccccc2)C(=O)/C1=C\c1ccc2c(c1)OCCO2 [Compound 9],10 to 20 µM
5,COCC1=NN(c2ccccc2)C(=O)/C1=C\c1ccc(-n2cccn2)cc1 [Compound 10],< 40 µM
6,O=C1/C(=C\c2ccc(-c3ccccc3F)o2)C(c2ccoc2)=NN1c1ccccc1 [Compound 15],< 10 µM
7,COc1cc(/C=C2\C(=O)N(c3ccccc3)N=C2Cc2ccccc2)ccc1O [Compound 22],10 to 20 µM
8,O=C1/C(=C\c2ccc3ccccc3c2)C(Cc2ccccc2)=NN1c1ccccc1 [Compound 23],< 40 µM
9,O=C1/C(=C\c2ccc(-c3ccccc3F)o2)C(Cc2ccccc2)=NN1c1ccccc1 [Compound 26],< 40 µM
10,O=C1/C(=C\c2ccc(-n3cccn3)cc2)C(Cc2ccccc2)=NN1c1ccccc1 [Compound 30],10 to 20 µM
11,O=C1/C(=C\c2ccc(-n3cncn3)cc2)C(Cc2ccccc2)=NN1c1ccccc1 [Compound 31],< 40 µM
12,COc1ccc(C2=NN(c3ccccc3)C(=O)C2=Cc2ccc(CO)o2)cc1OC [Compound 35],< 40 µM
13,COc1cc(/C=C2\C(=O)N(c3ccccc3)N=C2c2ccncc2)ccc1O [Compound 40],< 40 µM
14,COC(=O)N1CCN(c2ccc(/C=C3\C(=O)N(c4ccccc4)N=C3c3ccncc3)cc2)CC1 [Compound 42],< 40 µM
15,O=C1/C(=C\c2ccc(CO)o2)C(c2ccncc2)=NN1c1ccccc1 [Compound 44],< 40 µM
16,O=C1/C(=C\c2ccc(N3CCCC3)cc2)C(c2ccncc2)=NN1c1ccccc1 [Compound 45],< 40 µM
17,O=C1/C(=C\c2ccc3c(c2)OCCO3)C(c2ccncc2)=NN1c1ccccc1 [Compound 46],< 40 µM
18,O=C1/C(=C\c2ccc(CO)o2)C(c2ccccn2)=NN1c1ccccc1 [Compound 48],< 40 µM
19,CCCCC1=NN(c2ccccc2)C(=O)/C1=C\c1ccc(O)c(OC)c1 [Compound 50],10 to 20 µM
20,CCCCC1=NN(c2ccccc2)C(=O)/C1=C\c1ccc2ccccc2c1 [Compound 51],< 40 µM
21,CCCCC1=NN(c2ccccc2)C(=O)/C1=C\c1ccc(OCc2ccccc2)c(OC)c1 [Compound 52],< 40 µM
22,CCCCC1=NN(c2ccccc2)C(=O)/C1=C\c1ccc(-n2cncn2)cc1 [Compound 59],10 to 20 µM
23,COc1cc(/C=C2\C(=O)N(c3ccccc3)N=C2c2cccnc2)ccc1O [Compound 60],< 40 µM
24,COC(=O)N1CCN(c2ccc(/C=C3\C(=O)N(c4ccccc4)N=C3c3cccnc3)cc2)CC1 [Compound 62],< 40 µM
25,O=C1/C(=C\c2ccc(CO)o2)C(c2cccnc2)=NN1c1ccccc1 [Compound 64],< 40 µM

# Results, then the molecule that gave them:
row,IC50,SMILES
1,< 40 µM,O=C1/C(=C\c2ccc3c(c2)OCCO3)C(c2cccnc2)=NN1c1ccccc1 [Compound 66]
2,< 40 µM,O=C1/C(=C\c2ccc(-n3cccn3)cc2)C(c2cccnc2)=NN1c1ccccc1 [Compound 67]
3,< 10 µM,COc1cc(/C=C2\C(=O)N(c3ccccc3)N=C2C2CC2)ccc1OCc1ccccc1 [Compound 71]
4,< 40 µM,O=C1/C(=C\c2cccc3nccnc23)C(C2CC2)=NN1c1ccccc1 [Compound 72]
5,10 to 20 µM,O=C1/C(=C\c2ccc(CO)o2)C(C2CC2)=NN1c1ccccc1 [Compound 75]
6,10 to 20 µM,CN1CCN(c2ccc(/C=C3\C(=O)N(c4ccccc4)N=C3C3CC3)cc2)CC1 [Compound 78]
7,< 40 µM,O=C1/C(=C\c2ccc(-n3cccn3)cc2)C(C2CC2)=NN1c1ccccc1 [Compound 79]
8,< 40 µM,O=C1/C(=C\c2ccc(-n3cncn3)cc2)C(C2CC2)=NN1c1ccccc1 [Compound 80]
9,< 40 µM,CC(C)(C)OC(=O)N1CCN(C(=O)C2=NN(c3ccccc3)C(=O)/C2=C\c2ccc(-c3ccccc3F)o2)CC1 [Compound 88]
10,< 40 µM,CC(C)(C)OC(=O)N1CCN(C(=O)C2=NN(c3ccccc3)C(=O)C2=Cc2ccc(N3CCCC3)cc2)CC1 [Compound 89]
11,< 40 µM,COc1ccc(C2=NN(c3ccccc3)C(=O)/C2=C\c2ccc(CO)o2)cc1 [Compound 90]
12,< 40 µM,COc1ccc(C2=NN(c3ccccc3)C(=O)C2=Cc2ccc3c(c2)OCCO3)cc1 [Compound 93]
13,< 40 µM,COC(=O)N1CCN(c2ccc(/C=C3\C(=O)N(c4ccccc4)N=C3C)cc2)CC1 [Compound 95]
14,10 to 20 µM,COc1ccc(C2=NN(c3ccccc3)C(=O)/C2=C\c2ccc3ccccc3c2)cc1OC [Compound 97]
15,10 to 20 µM,CCCCC1=NN(c2ccccc2)C(=O)/C1=C\c1ccc2c(c1)OCCO2 [Compound 98]
16,10 to 20 µM,CC1=NN(c2ccccc2)C(=O)/C1=C\c1ccc(N2CCN(C)CC2)cc1 [Compound 99]
17,< 40 µM,CN1CCN(c2ccc(/C=C3\C(=O)N(c4ccccc4)N=C3Cc3ccccc3)cc2)CC1 [Compound 100]
18,< 40 µM,CCCCC1=NN(c2ccccc2)C(=O)/C1=C\c1nccs1 [Compound 105]

row,IC50,SMILES
1,< 40 µM,CCCCC1=NN(c2ccccc2)C(=O)C1=Cc1ccc(N2CCN(C)CC2)cc1 [Compound 106]
2,< 40 µM,CC1=NN(c2ccc(S(N)(=O)=O)cc2)C(=O)/C1=C\c1ccc(-n2cncn2)cc1 [Compound 109]
3,< 10 µM,NS(=O)(=O)c1ccc(N2N=C(C3CC3)/C(=C/c3ccc(-n4cccn4)cc3)C2=O)cc1 [Compound 110]
4,< 40 µM,NS(=O)(=O)c1ccc(N2N=C(C3CC3)/C(=C/c3ccc(-n4cncn4)cc3)C2=O)cc1 [Compound 111]
5,< 40 µM,COC(=O)c1ccc(COc2ccc(/C=C3\C(=O)N(c4ccccc4)N=C3C)cc2OC)cc1 [Compound 122]
6,10 to 20 µM,CCOC(=O)CN1N=C(C)/C(=C/c2ccc(O)c(OC)c2)C1=O [Compound 130]
7,< 40 µM,COc1cc(/C=C2\C(=O)N(C)N=C2C)ccc1O [Compound 132]
8,10 to 20 µM,CC1=NN(c2cccc(S(N)(=O)=O)c2)C(=O)C1=Cc1cccc2[nH]ccc12 [Compound 137]
9,< 10 µM,CC1=NN(c2cccc(S(N)(=O)=O)c2)C(=O)/C1=C\c1cccc2cc[nH]c12 [Compound 140]
10,10 to 20 µM,CC1=NN(c2cccc(S(N)(=O)=O)c2)C(=O)C1=Cc1cc2ccccc2n1C [Compound 141]
11,< 40 µM,CC1=NN(c2ccc(S(N)(=O)=O)cc2)C(=O)C1=Cc1cc2ccccc2n1C [Compound 142]
12,< 40 µM,CC1=NN(c2cccc(S(N)(=O)=O)c2)C(=O)/C1=C\c1ccc2occc2c1 [Compound 143]
13,10 to 20 µM,CC1=NN(c2ccc(S(N)(=O)=O)cc2)C(=O)/C1=C\c1ccc2occc2c1 [Compound 144]
14,10 to 20 µM,CC1=NN(c2cccc(S(N)(=O)=O)c2)C(=O)/C1=C\c1ccc(-n2cccn2)cc1 [Compound 145]
15,< 10 µM,CC1=NN(c2ccc(S(N)(=O)=O)cc2)C(=O)C1=Cc1c[nH]c2ccc(Cl)cc12 [Compound 146]
16,< 10 µM,CC1=NN(c2cccc(S(N)(=O)=O)c2)C(=O)/C1=C\c1c[nH]c2ccc(Cl)cc12 [Compound 147]
17,< 10 µM,CC1=NN(c2cccc(S(N)(=O)=O)c2)C(=O)/C1=C\c1ccc2cc[nH]c2c1 [Compound 149]
